Laboratory results: the NIST ThermoML archive (doi:10.1016/j.jct.2009.07.005)

Tests used:
[1] = molar heat capacity at constant pressure; xn = mol fraction of the nth substance listed; conditions: 101 kPa, Liquid, Small sample (50 mg) DSC
[2] = xn = mol fraction of the nth substance listed; conditions: 101 kPa, Liquid, Small sample (50 mg) DSC

C1CNCCN1 [piperazine] + O
Conditions	excess molar heat capacity, x1 = 0.05 [J/K/mol]	excess molar heat capacity, x1 = 0.1 [J/K/mol]	excess molar heat capacity, x1 = 0.15 [J/K/mol]	excess molar heat capacity, x1 = 0.2 [J/K/mol]	molar heat capacity at constant pressure, x1 = 0.05 [J/K/mol]	molar heat capacity at constant pressure, x1 = 0.1 [J/K/mol]	molar heat capacity at constant pressure, x1 = 0.15 [J/K/mol]	molar heat capacity at constant pressure, x1 = 0.2 [J/K/mol]
[1], 303.2 K	–	–	–	–	82.5	89.4	96.1	103.7
[1], 308.2 K	–	–	–	–	82.8	90	97	104.8
[1], 313.2 K	–	–	–	–	83.2	90.6	98	105.9
[1], 318.2 K	–	–	–	–	83.5	91.2	98.9	107.1
[1], 323.2 K	–	–	–	–	83.8	92	99.9	108.2
[1], 328.2 K	–	–	–	–	84.2	92.6	100.8	109.4
[1], 333.2 K	–	–	–	–	84.5	93.3	101.7	110.6
[1], 338.2 K	–	–	–	–	84.9	93.9	102.5	111.8
[1], 343.2 K	–	–	–	–	85.3	94.6	103.5	113
[1], 348.2 K	–	–	–	–	85.6	95.2	104.4	114.1
[1], 353.2 K	–	–	–	–	86	95.9	105.3	115.3
[2], 303.2 K	2.16	3.88	5.53	7.95	–	–	–	–
[2], 308.2 K	2.37	4.28	6.13	8.65	–	–	–	–
[2], 313.2 K	2.58	4.68	6.73	9.35	–	–	–	–
[2], 318.2 K	2.78	5.08	7.33	10.05	–	–	–	–
[2], 323.2 K	2.99	5.58	7.93	10.75	–	–	–	–
[2], 328.2 K	3.2	5.98	8.53	11.45	–	–	–	–
[2], 333.2 K	3.41	6.38	9.03	12.25	–	–	–	–
[2], 338.2 K	3.62	6.78	9.53	12.95	–	–	–	–
[2], 343.2 K	3.83	7.18	10.13	13.65	–	–	–	–
[2], 348.2 K	4.04	7.58	10.63	14.35	–	–	–	–
[2], 353.2 K	4.25	7.98	11.23	15.05	–	–	–	–
